Source: ChEMBL document CHEMBL1148514, “Development of lipopeptides for inhibiting 20S proteasomes” (Bioorg Med Chem Lett, 2006)
Residues, ends and D or L forms follow the SMILES beside them.

Experiments:
[1] = target: T1, Proteasome component C5 (Saccharomyces cerevisiae S288c) (UniProt P23724); assay: Activation of post acid activity of yeast 20S proteasome
T1 sequence (whole entry): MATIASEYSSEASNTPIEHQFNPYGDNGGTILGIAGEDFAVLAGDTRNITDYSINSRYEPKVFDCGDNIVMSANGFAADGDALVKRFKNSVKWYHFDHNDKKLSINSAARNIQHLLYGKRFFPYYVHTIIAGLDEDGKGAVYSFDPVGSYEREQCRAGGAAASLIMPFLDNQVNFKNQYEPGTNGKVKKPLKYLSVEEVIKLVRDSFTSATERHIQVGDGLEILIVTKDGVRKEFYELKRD

[2] = target: T2, Proteasome Macropain subunit PRE2 (Saccharomyces cerevisiae S288c) (UniProt P30656); assay: Inhibition of chymotrypsin like activity of yeast 20S proteasome at 80 uM
T2 sequence (whole entry): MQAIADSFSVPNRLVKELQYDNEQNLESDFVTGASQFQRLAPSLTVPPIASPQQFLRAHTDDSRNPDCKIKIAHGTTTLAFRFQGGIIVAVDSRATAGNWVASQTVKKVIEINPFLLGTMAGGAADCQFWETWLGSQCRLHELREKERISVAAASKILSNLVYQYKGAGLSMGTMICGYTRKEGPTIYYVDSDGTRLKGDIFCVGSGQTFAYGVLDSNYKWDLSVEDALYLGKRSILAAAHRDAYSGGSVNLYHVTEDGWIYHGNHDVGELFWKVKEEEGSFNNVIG

[3] = target: T3, Proteasome Macropain subunit (Saccharomyces cerevisiae S288c, UniProt P22141); assay: Inhibition of trypsin like activity of yeast 20S proteasome
T3 sequence (P22141 whole entry): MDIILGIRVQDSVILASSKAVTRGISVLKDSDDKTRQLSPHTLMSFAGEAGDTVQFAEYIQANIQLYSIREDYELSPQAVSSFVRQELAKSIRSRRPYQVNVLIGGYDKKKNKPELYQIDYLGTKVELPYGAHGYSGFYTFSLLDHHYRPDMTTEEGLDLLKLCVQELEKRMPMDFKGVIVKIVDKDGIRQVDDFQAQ

[4] = target: T4, Proteasome Macropain subunit (Saccharomyces cerevisiae S288c) (UniProt P22141); assay: Activation of trypsin like activity of yeast 20S proteasome
T4 sequence (whole entry): T3 sequence (P22141 whole entry)

[5] = target: T5, Proteasome Macropain subunit PRE2 (Saccharomyces cerevisiae S288c, UniProt P30656); assay: Inhibition of chymotrypsin like activity of yeast 20S proteasome
T5 sequence (P30656 whole entry): T2 sequence (whole entry)

Proteasome component C5 [6] = target: T6, Proteasome component C5 (Saccharomyces cerevisiae S288c, UniProt P23724); assay: Inhibition of post acid activity of yeast 20S proteasome
T6 sequence (P23724 whole entry): T1 sequence (whole entry)

[7] = target: T2, Proteasome Macropain subunit PRE2 (Saccharomyces cerevisiae S288c); assay: Inhibition of chymotrypsin like activity of yeast 20S proteasome at 625 uM
[8] = target: T4, Proteasome Macropain subunit (Saccharomyces cerevisiae S288c); assay: Inhibition of trypsin like activity of yeast 20S proteasome at 625 uM
[9] = target: T1, Proteasome component C5 (Saccharomyces cerevisiae S288c); assay: (§1) Inhibition of post acid activity of yeast 20S proteasome at 625 uM
[10] = target: T1, Proteasome component C5 (Saccharomyces cerevisiae S288c); assay: Inhibition of post acid activity of yeast 20S proteasome at 80 uM
Proteasome component C5 [11] = target: T6, Proteasome component C5; assay: as §1
[12] = target: T2, Proteasome Macropain subunit PRE2 (Saccharomyces cerevisiae S288c); assay: Activation of chymotrypsin like activity of yeast 20S proteasome

Molecule | Activity [1] | Activity [4] | Ki [5] | inhibition [7] | inhibition [8] | inhibition [9] | other results
CCCCCCCCCCCCCC(=O)N[C@H](C(=O)N[C@H](C(=O)N[C@H](C(=O)N[C@@H](Cc1ccccc1)C(=O)N[C@@H](CC(=O)O)C(=O)N[C@@H](Cc1ccc(O)cc1)C(=O)O)[C@@H](C)O)[C@@H](C)CC)[C@@H](C)O (HELM PEPTIDE1{[CCCCCCCCCCCCCC(=O)[*:2]].T.I.T.F.D.Y}$$$$V2.0) | 1.3 | – | – | – | – | – | inhibition [2]: < 10%; Ki [3]: 78 µM
CCCCCCCCCCCCCCCCCC(=O)N[C@H](C(=O)N[C@H](C(=O)N[C@H](C(=O)N[C@@H](Cc1ccccc1)C(=O)N[C@@H](CC(=O)O)C(=O)N[C@@H](Cc1ccc(O)cc1)C(=O)O)[C@@H](C)O)[C@@H](C)CC)[C@@H](C)O (HELM PEPTIDE1{[CCCCCCCCCCCCCCCCCC(=O)[*:2]].T.I.T.F.D.Y}$$$$V2.0) | 1.3 | 1.6 | 39 µM | – | – | – | –
H-TITYDF-OH | – | – | – | < 10% | < 10% | – | Ki (Proteasome component C5 [6]): > 625 µM
H-TVTYKL-OH | – | – | 545 µM | – | < 10% | < 10% | –
H-TITYEY-OH | – | – | – | < 10% | < 10% | < 10% | –
CCCCCCCC(=O)N[C@@H](Cc1ccc(O)cc1)C(=O)N[C@@H](CCC(=O)O)C(=O)N[C@@H](CC(C)C)C(=O)O (HELM PEPTIDE1{[CCCCCCCC(=O)[*:2]].Y.E.L}$$$$V2.0) | – | 1.9 | > 80 µM | – | – | – | inhibition [10]: < 10%
CCCCCCCC(=O)N[C@H](C(=O)N[C@H](C(=O)N[C@H](C(=O)N[C@@H](Cc1ccc(O)cc1)C(=O)N[C@@H](CCCCN)C(=O)N[C@@H](Cc1ccccc1)C(=O)O)[C@@H](C)O)C(C)C)[C@@H](C)O (HELM PEPTIDE1{[CCCCCCCC(=O)[*:2]].T.V.T.Y.K.F}$$$$V2.0) | 1.3 | 1.2 | 20 µM | – | – | – | –
H-TITYKF-OH | – | – | 151 µM | – | < 10% | – | Ki (Proteasome component C5 [11]): 260 µM
H-TVTYDY-OH | – | – | – | < 10% | < 10% | < 10% | –
CCCCCCCCCCCCCCCC(=O)N[C@H](C(=O)N[C@H](C(=O)N[C@H](C(=O)N[C@@H](Cc1ccc(O)cc1)C(=O)N[C@@H](CCCCN)C(=O)N[C@@H](Cc1ccccc1)C(=O)O)[C@@H](C)O)C(C)C)[C@@H](C)O (HELM PEPTIDE1{[CCCCCCCCCCCCCCCC(=O)[*:2]].T.V.T.Y.K.F}$$$$V2.0) | – | – | – | – | – | – | Activity [12]: 1.6
